Consider twelve compounds from PubChem BioAssay (NCI).

Molecules are shown by their SMILES. Values joined by “and” are separate entries in the source; they are usually repeats but may differ in a detail not shown here. Identical values can stand only once.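 Five concentrations, 48 hours, 96-well plates. Here, GI50 denotes the concentration required for 50% inhibition of growth. TGI: concentration producing complete growth inhibition.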

Test systems include RXF 393 renal; EKVX NSCLC; BT-549 breast; UO-31 renal; OVCAR-5 ovarian; OVCAR-8 ovarian; OVCAR-4 ovarian; IGROV1 ovarian; UACC-257 melanoma; MDA-MB-231 breast.
What all share (assay): growth of human tumour cells (NCI), 48 h

As to `Cc1cc(O)c(O)c(Oc2cc(C)cc(O)c2O)c1`, the TGI is 88.2 µM in the test on RXF 393 renal; 36.8 µM in the test on EKVX NSCLC; 78.9 µM in the test on BT-549 breast; > 100 µM in the test with UO-31 renal; > 100 µM with OVCAR-5 ovarian; 45.1 µM in the test on OVCAR-8 ovarian. The TGI with OVCAR-4 ovarian is 28.8 µM; with IGROV1 ovarian, 69.6 µM; in the test on UACC-257 melanoma, > 100 µM; with MDA-MB-231 breast, 52.7 µM.
For `Cc1cccc2c1NC(=O)C2(c1ccc(O)cc1)c1ccc(O)cc1`, the GI50 is < 0.0181 µM with RXF 393 renal; 16.4 µM with EKVX NSCLC; < 0.01 µM with BT-549 breast; 13.1 µM in the test with UO-31 renal; 12.8 µM in the test on OVCAR-5 ovarian; < 0.0192 µM with OVCAR-8 ovarian. The GI50 in the test with OVCAR-4 ovarian was < 0.01 µM; in the test on IGROV1 ovarian, 0.0634 µM; with UACC-257 melanoma, 18.4 µM; with MDA-MB-231 breast, 13.3 µM. Besides, the TGI with RXF 393 renal was 0.709 µM; in the test with EKVX NSCLC, 98.9 µM; in the test on UO-31 renal, 78.8 µM; in the test on OVCAR-5 ovarian it was 67.1 µM; with OVCAR-8 ovarian, 13.7 µM; in the test with OVCAR-4 ovarian, < 0.0174 µM. The TGI in the test with IGROV1 ovarian stood at 47.6 µM; in the test on UACC-257 melanoma, 49.2 µM; in the test on MDA-MB-231 breast it was 33.3 µM.
Turning to `COc1cccc2cc(-c3nc(C4CCC(C(=O)O)CC4)n4ncnc(N)c34)[nH]c12` (stereo not drawn), the GI50 with RXF 393 renal was 0.186 µM and 0.299 µM; with EKVX NSCLC it was 0.478 µM and 1.03 µM; with BT-549 breast it was 0.0939 µM and 0.168 µM; in the test with UO-31 renal it was 0.129 µM and 0.21 µM; with OVCAR-5 ovarian, 0.289 µM and 0.658 µM; with OVCAR-8 ovarian, 0.371 µM and 0.642 µM. For the same compound, the GI50 in the test on OVCAR-4 ovarian was 0.155 µM and 0.288 µM; in the test on IGROV1 ovarian, 0.192 µM and 0.237 µM; in the test with UACC-257 melanoma it was 0.198 µM and 0.378 µM; with MDA-MB-231 breast it was 0.39 µM and 0.348 µM. The TGI was 0.954 µM and 3.27 µM in the test with RXF 393 renal; 5.13 µM and > 10 µM in the test on EKVX NSCLC; 1.06 µM and 1.49 µM in the test with BT-549 breast; 2.13 µM and 3.35 µM in the test with UO-31 renal; > 100 µM in the test with OVCAR-5 ovarian; 3.78 µM and > 10 µM in the test with OVCAR-8 ovarian. The TGI in the test on OVCAR-4 ovarian was 2 µM and 3.28 µM; with IGROV1 ovarian, 1.68 µM and 1.97 µM; in the test with UACC-257 melanoma it was 2.1 µM and 4.19 µM; with MDA-MB-231 breast it was 23.5 µM and > 10 µM.
On to `Cc1ccc(C(CC(=O)c2ccccc2)C(C(=O)c2ccccc2)C(c2ccc(C)cc2)C2C(=O)NC(=S)NC2=O)cc1` (stereo not drawn), for which the GI50 is 30.3 µM in the test with RXF 393 renal; 19.5 µM in the test with EKVX NSCLC; 31.7 µM in the test with BT-549 breast; 6.93 µM in the test on UO-31 renal; 31 µM in the test on OVCAR-5 ovarian; 16.9 µM in the test on OVCAR-8 ovarian. The GI50 in the test with OVCAR-4 ovarian is > 50 µM; with IGROV1 ovarian, 19.2 µM; with UACC-257 melanoma it was 13.4 µM; with MDA-MB-231 breast it was 9.5 µM. For the same compound, the TGI in the test with RXF 393 renal was > 50 µM; in the test on EKVX NSCLC it was > 50 µM; in the test with BT-549 breast it was > 50 µM; in the test with UO-31 renal it was 29.3 µM; in the test on OVCAR-5 ovarian it was > 50 µM; with OVCAR-8 ovarian, > 50 µM. Further, the TGI with OVCAR-4 ovarian, in the test with IGROV1 ovarian, with UACC-257 melanoma and in the test with MDA-MB-231 breast was > 50 µM each time.
`O=C(NCc1cccs1)OC1CC2CCC1C2` (stereo not drawn): the TGI with RXF 393 renal, in the test on EKVX NSCLC, in the test on BT-549 breast, with UO-31 renal, in the test on OVCAR-5 ovarian and in the test on OVCAR-8 ovarian was > 100 µM each time. In addition, the TGI in the test with OVCAR-4 ovarian, with IGROV1 ovarian, with UACC-257 melanoma and in the test with MDA-MB-231 breast was > 100 µM each time.
`O=C(Nc1ccc(O)c(NS(=O)(=O)c2ccc(F)cc2)c1)c1ccc(-c2ccccc2)cc1`: the GI50 with RXF 393 renal is 2.53 µM; in the test with EKVX NSCLC, 7.17 µM; in the test on BT-549 breast it was 4.6 µM; with UO-31 renal, 3.35 µM; in the test on OVCAR-5 ovarian, 13.6 µM; with OVCAR-8 ovarian it was 5.32 µM. The GI50 is 4.45 µM with OVCAR-4 ovarian, 4.65 µM in the test with IGROV1 ovarian, 5.71 µM in the test on UACC-257 melanoma and 6.15 µM in the test on MDA-MB-231 breast. Further, the TGI in the test on RXF 393 renal was 10.7 µM; in the test with EKVX NSCLC, 26.4 µM; with BT-549 breast it was 20.2 µM; in the test with UO-31 renal, > 100 µM; in the test on OVCAR-5 ovarian it was 27 µM; in the test with OVCAR-8 ovarian, > 100 µM. Besides, the TGI in the test with OVCAR-4 ovarian was 25.3 µM; in the test with IGROV1 ovarian, 20.5 µM; in the test with UACC-257 melanoma, 46.6 µM; in the test with MDA-MB-231 breast, 20.4 µM.
For `CC(=O)Nc1ccc(S(=O)(=O)c2ccc(NC(C)=O)cc2)cc1`, the GI50 with RXF 393 renal is > 100 µM; with EKVX NSCLC it was 64 µM; in the test with BT-549 breast, > 100 µM; in the test on UO-31 renal it was > 100 µM; with OVCAR-5 ovarian, > 100 µM; with OVCAR-8 ovarian, > 100 µM. Also, the GI50 with OVCAR-4 ovarian, in the test with IGROV1 ovarian, in the test on UACC-257 melanoma and with MDA-MB-231 breast was > 100 µM each time. Also, the TGI with RXF 393 renal, in the test with EKVX NSCLC, in the test with BT-549 breast, with UO-31 renal, in the test with OVCAR-5 ovarian and in the test on OVCAR-8 ovarian was > 100 µM throughout. In addition, the TGI in the test with OVCAR-4 ovarian, in the test with IGROV1 ovarian, in the test on UACC-257 melanoma and with MDA-MB-231 breast was > 100 µM in each case.
Take `Cc1csc(-c2ccc3c(c2)COC3(CCCN(C)C)c2ccc(F)cc2)c1` (stereo not drawn): the GI50 in the test on RXF 393 renal is 1.63 µM; in the test with EKVX NSCLC, 1.77 µM; in the test on BT-549 breast, 1.6 µM; in the test on UO-31 renal, 1.46 µM; in the test with OVCAR-5 ovarian it was 1.63 µM; in the test with OVCAR-8 ovarian, 2.35 µM. The GI50 in the test on OVCAR-4 ovarian was 1.67 µM; in the test with IGROV1 ovarian, 1.67 µM; in the test on UACC-257 melanoma, 1.81 µM; in the test with MDA-MB-231 breast, 1.79 µM. In addition, the TGI is 3.04 µM in the test with RXF 393 renal; 3.48 µM with EKVX NSCLC; 3.2 µM with BT-549 breast; 2.79 µM with UO-31 renal; 3.05 µM in the test on OVCAR-5 ovarian; 5.69 µM in the test on OVCAR-8 ovarian. In addition, the TGI was found to be 3.11 µM in the test with OVCAR-4 ovarian, 3.32 µM in the test on IGROV1 ovarian, 3.76 µM in the test with UACC-257 melanoma and 3.34 µM in the test with MDA-MB-231 breast.
`COCO[C@@H]1CC2C=Nc3cc(OCc4ccccc4)c(OC)cc3C(=O)N2C1` (stereo partly drawn): the GI50 was 0.242 µM with RXF 393 renal; 1.09 µM in the test with EKVX NSCLC; 0.31 µM with BT-549 breast; 0.237 µM in the test with UO-31 renal; 0.765 µM in the test with OVCAR-5 ovarian; 0.348 µM with OVCAR-8 ovarian. Besides, the GI50 in the test on OVCAR-4 ovarian is 1.32 µM; with IGROV1 ovarian, 0.436 µM; in the test on UACC-257 melanoma, 1.09 µM; with MDA-MB-231 breast it was 0.248 µM. Also, the TGI in the test on RXF 393 renal is 0.972 µM; with EKVX NSCLC it was 4.85 µM; in the test with BT-549 breast, 2.39 µM; in the test on UO-31 renal, 2.14 µM; with OVCAR-5 ovarian, 5.79 µM; with OVCAR-8 ovarian, 6.52 µM. For the same compound, the TGI with OVCAR-4 ovarian came out at 27.5 µM; in the test with IGROV1 ovarian, 20.5 µM; in the test with MDA-MB-231 breast, 1.57 µM.
With `COc1cc(/C=N/Nc2ncnc3c2cnn3Cc2ccccc2)ccc1O`, the GI50 was 4.7 µM in the test with RXF 393 renal; > 25 µM in the test on EKVX NSCLC; 12.2 µM in the test on BT-549 breast; 1.93 µM in the test on UO-31 renal; > 25 µM in the test with OVCAR-5 ovarian; 5.85 µM in the test on OVCAR-8 ovarian. Besides, the GI50 with OVCAR-4 ovarian was 5.05 µM; in the test with IGROV1 ovarian it was 14.8 µM; in the test on UACC-257 melanoma, > 16.7 µM; with MDA-MB-231 breast, 3.43 µM. The TGI was 19.2 µM with RXF 393 renal; > 25 µM in the test with EKVX NSCLC; > 25 µM in the test on BT-549 breast; 11.9 µM in the test on UO-31 renal; > 25 µM with OVCAR-5 ovarian; > 19.8 µM with OVCAR-8 ovarian. For the same compound, the TGI is 15.3 µM in the test with OVCAR-4 ovarian, > 25 µM in the test on IGROV1 ovarian, > 25 µM with UACC-257 melanoma and > 25 µM in the test on MDA-MB-231 breast.
On to `CCCCC/C=C\C/C=C/CCCCCCCCNC(=O)Nc1ccc([N+](=O)[O-])cc1`, for which the GI50 is 24.1 µM in the test with RXF 393 renal; 23.8 µM in the test on EKVX NSCLC; 28.2 µM in the test with BT-549 breast; 24.3 µM with UO-31 renal; 30.8 µM in the test with OVCAR-5 ovarian; 8.82 µM in the test with OVCAR-8 ovarian. Further, the GI50 with OVCAR-4 ovarian is 13.5 µM; with IGROV1 ovarian, 26.4 µM; in the test on UACC-257 melanoma, 40.7 µM; in the test with MDA-MB-231 breast, 13.9 µM. Moreover, the TGI in the test with RXF 393 renal was 73.8 µM; with EKVX NSCLC it was > 100 µM; in the test on BT-549 breast, 65.3 µM; in the test with UO-31 renal, > 100 µM; in the test on OVCAR-5 ovarian, > 100 µM; in the test with OVCAR-8 ovarian, > 100 µM. Moreover, the TGI in the test with OVCAR-4 ovarian, with IGROV1 ovarian, in the test with UACC-257 melanoma and with MDA-MB-231 breast was > 100 µM throughout.
For the compound `COc1cc([N+](=O)[O-])c(OC)cc1-c1nc2n(c1/C(N)=N/C(=N)N)CCS2`, the GI50 is 42.2 µM in the test on RXF 393 renal; 40.3 µM in the test on EKVX NSCLC; > 100 µM in the test with BT-549 breast; > 100 µM in the test on UO-31 renal; > 100 µM in the test on OVCAR-5 ovarian; 17.5 µM in the test on OVCAR-8 ovarian. For the same compound, the GI50 with OVCAR-4 ovarian was 44 µM; in the test with IGROV1 ovarian, 17.7 µM; in the test on UACC-257 melanoma, 15.9 µM; in the test with MDA-MB-231 breast, 27 µM. In addition, the TGI in the test with RXF 393 renal, in the test on EKVX NSCLC, in the test with BT-549 breast, in the test with UO-31 renal, with OVCAR-5 ovarian and in the test on OVCAR-8 ovarian was > 100 µM each time. The TGI in the test on OVCAR-4 ovarian was > 100 µM; in the test with IGROV1 ovarian, > 100 µM; with UACC-257 melanoma it was 57 µM; with MDA-MB-231 breast, > 100 µM.
